Row | melting point | Structure (SMILES)
1 | 190 °C | CS(=O)(=O)c1ccc(C(=O)c2cc(-c3ccc(S(C)(=O)=O)cc3)c(N3CCOCC3)s2)cc1
2 | 183 to 186 °C | Cc1cccc2[nH]c3c(c(C)nn3-c3ccccn3)c(=O)c12
3 | 125 °C | CN(C(=O)Nc1ccc2ccccc2c1)c1cccc(-c2ccc(CC(Nc3ccccc3C(=O)c3ccccc3)C(=O)O)cc2)c1 (stereo not drawn)
4 | 93 to 94 °C | CC(C)C(Nc1ccc(C(F)(F)F)cc1)C(N)=O (stereo not drawn)
5 | 296 to 298 °C | Cc1ccc2[nH]c3c(cc(-c4cccc(C(=O)N5CCOCC5)c4)c(=O)n3C)c2c1
6 | 61 °C | Cc1nc(N=CN(C)C)nc(N(C)C)n1
7 | 204 to 205 °C | O=C1CCC(C(=O)O)c2cc(Cl)c(C3CCCCC3)cc21 (stereo not drawn)
8 | 135 °C | Cc1cc(N)nc(CCc2nc3cc(-c4ccc(S(=O)(=O)N5CCN(C)CC5)cc4)cnc3[nH]2)c1
9 | 188 °C | O=C(Nc1ccccc1)c1cc2ccccc2s1
10 | 188 to 189 °C | CC(C)n1nc(-c2nc(NCCN(C)C)c(N)nc2-c2ccccc2)ccc1=O
11 | 222 °C | CC(C)(O)c1cnn2c(-c3ccc(F)c(-c4ccc(F)cn4)c3)cnc2n1
12 | 142 to 144 °C | CCCCNC(=O)C1=C(C(=O)Nc2cc(OC3CCCC3)c(Cl)cc2F)CCCC1
13 | 275 to 276 °C | O=C1Nc2ccc(Cl)cc2C2(c3ccccc3)NCCCN12 (stereo not drawn)
14 | 36 to 37 °C | FC(F)(F)c1nnc(SCc2ccccc2Cl)s1
15 | 104 to 105 °C | CC(C)(C)[C@H](N)C(N)=O
16 | 130 to 135 °C | Cc1nc(-c2cc3c4ccccc4n(CCCCl)c3cn2)no1
17 | 135 to 136 °C | CCCCC(=O)c1cc2n(c1)CCc1ccccc1C2=O
18 | 168 to 170 °C | COc1ccc2nc(CN(CCN(Cc3ccc4cc(OC)ccc4n3)Cc3ccc4cc(OC)ccc4n3)Cc3ccc4cc(OC)ccc4n3)ccc2c1
19 | 109 to 110 °C | COC(=O)N(CCO)c1ccc(OCc2nc3ccccc3s2)cc1C
20 | 283 to 285 °C | Cc1cc(-c2ccc(C#N)cc2)cn2cc(-c3ccc(C#N)cc3)nc12
21 | 129 to 131 °C | O=C1c2ccccc2C(=O)N1COc1ccncc1
22 | 292 to 294 °C | CN(Cc1cccc2c1CN(C1CCC(=O)NC1=O)C2=O)C(=O)Nc1cccc2ccccc12 (stereo not drawn)
23 | 182 to 185 °C | Cc1cccc(C(=O)c2[nH]c3cc(Cl)ccc3c2NC(=O)CC(C)C)c1
24 | 74 to 76 °C | Cc1ccc(NC(=O)C(C)(C)C)c(-c2cncc(Br)n2)c1

Row | melting point | Structure (SMILES)
25 | 142 to 146 °C | c1ccc(Cc2cc3ccncc3[nH]2)cc1
26 | 205 to 207 °C | COc1ccc(CN2C(=O)[C@@H](NC(=O)Cc3ccccc3)[C@H]2CNC(C)=O)c(OC)c1 (relative stereo)
27 | 250 to 251 °C | COc1ccc2c(c1Br)C(=O)C(=O)N2
28 | 82 to 84 °C | CC1(C)CC(S(C)(=O)=O)=NO1
29 | 223 °C | O=C(NCC(=O)N1c2ccccc2N(Cc2ccccc2)C(=O)[C@H]2CCC[C@H]21)c1cccs1 (relative stereo)
30 | 73 to 74 °C | CSCC(=O)Nc1cc(SCC(C)C)ccc1[N+](=O)[O-]
31 | 52.7 to 53.3 °C | OCCn1ccc2cccnc21
32 | 82 °C | CCC1(C)SC(C)N=C1C (stereo not drawn)
33 | 292 to 293 °C | NC(=O)c1ccc(COc2ccc3c(c2)CCN(C2CCN(C4CCC4)CC2)C3=O)cc1
34 | 103 to 105 °C | CCOC(=O)OCCn1nc(-c2cc(C(C)(C)C)c(O)c(C(C)(C)C)c2)c2cccnc21
35 | 226 to 227 °C | CCCCn1cc(/C=C(\Cc2cc3c(cc2OC)OCO3)C(=O)O)c(-c2ccc(OC)cc2OCc2ccccc2C(=O)O)n1
36 | 185 °C | CCOC(=O)C1=C2NCCN2C(C)=C(C(=O)OC)C1c1ccccc1[N+](=O)[O-] (stereo not drawn)
37 | 73 to 84 °C | CCC(Nc1ncnc2c1ncn2C1OC(CO)C(O)C1O)c1ccccc1 (stereo not drawn)
38 | 134 °C | CC1(C)NC(=O)Oc2ccc(OCc3ccccc3)cc21
39 | 202 to 204 °C | CCOC(=O)c1cn(-c2cc(NC(=O)OCc3ccccc3)c(F)cc2F)c2cc(F)c(F)c(C)c2c1=O
40 | 139 °C | N#Cc1ncn2c(C(F)(F)F)cc(-c3ccc(Cl)cc3Cl)nc12
41 | 205 to 206 °C | CC(=O)NCC1CN(c2ccc(N3CCN(c4nccs4)CC3)c(F)c2)C(=O)O1 (stereo not drawn)
42 | 214 to 216 °C | CN=C(N)Nc1nc(-c2cccc(C(=O)NCCN)c2)cs1
43 | 150 to 153 °C | Cc1cc(C(=O)N2Cc3ccc(C(=O)O)n3Cc3ccccc32)ccc1C1=CCCc2ccccc21
44 | 233 to 234 °C | CCc1nc2c(N)nc3ccccc3c2n1CC(C)C
45 | 115 to 117 °C | CCOCCOc1cc(C(C)C)c(NC(=O)CN2CCN(CCCSc3nc4ccccc4o3)CC2)c(C(C)C)c1
46 | 209 to 211 °C | CC(=O)Nc1c(OC(C)=O)cc(C)c(C)c1[N+](=O)[O-]
47 | 137 °C | CNn1c(N(C)C)nn(C(=O)NC2CCCC2)c1=O
48 | 210 to 211 °C | O=C1c2c(F)c(F)c(F)c(F)c2C(=O)N1c1ccccc1

Row | melting point | Structure (SMILES)
49 | 81.5 to 82.5 °C | CCOC(=O)c1nc(-c2ccc(F)cc2)c(CCCl)s1
50 | 147 to 148 °C | O=C1C=C(OCc2ccccc2)CN1
51 | 238 to 242 °C | O=C(O)CN1C(=O)C(=Cc2ccc([N+](=O)[O-])o2)SC1=S
52 | 63.6 °C | C=CC(=O)Oc1ccc(-c2cccc(OC(=O)C=C)c2)cc1
53 | 202 to 204 °C | CCN1C(=O)CC(C)(C)c2ccc(C(=O)O)cc21
54 | 162 to 163 °C | COc1ccc(NC(=NC#N)NC(NC(=O)Cc2ccc(OC)c(OC)c2)C(C)(C)C)c(OC)n1 (stereo not drawn)
55 | 237 to 239 °C | O=C(O)c1ccc(-c2c3ccccc3nn2Cc2ccc(F)cc2)cc1
56 | 111 °C | CCN(CC)CC=CC(=O)Nc1cc2c(Nc3ccc(F)c(Cl)c3)ncnc2cc1OC1CCC1
57 | 187 °C | CC(=O)n1ccc2cc(C(=O)NC(C)(C)C)ccc21
58 | 82 to 84 °C | COc1cc(CCNC(=O)[C@@H](NC(=O)OC(C)(C)C)C(C)C)ccc1OC/C=C\c1ccc(Cl)cc1
59 | 97 to 101 °C | CCC(C)C(C(=O)NS(C)(=O)=O)c1nc(OC)cc(OC)n1 (stereo not drawn)
60 | 131 to 132 °C | O=C(O)CCCCCc1nn(-c2ccc([N+](=O)[O-])cc2)c2c1CCC2
61 | 161 to 163 °C | CC(=O)Nc1ccc(S(=O)(=O)N[C@@H]2COCOC[C@H]2O)cc1 (relative stereo)
62 | 142 to 144 °C | CCC(C)(C)c1ccc(OCCCCSC2C(=O)N(c3c(Cl)cc(Cl)cc3Cl)N=C2Nc2ccc(Cl)cc2Cl)c(C(C)(C)CC)c1 (stereo not drawn)
63 | 198 to 200 °C | Cc1nc2cc(OCc3ccccc3)c(OCc3ccccc3)cc2nc1C(=O)O
64 | 166 to 168 °C | COc1cc([N+](=O)[O-])c2nccc(C)c2c1Oc1ccc(Cl)cc1Cl
65 | 275 to 278 °C | O=C(O)c1c[nH]c2cc(C3CC3)nn2c1=O
66 | 167 to 168 °C | Cc1oc(-c2ccccc2)nc1CCC(N)=S
67 | 81.6 to 83.6 °C | C[C@H]1C=CC(S(=O)(=O)c2ccccc2)=C[C@H](C)[C@H]1O[Si](C)(C)C(C)(C)C
68 | 205 to 207 °C | Cc1nc2c(N)nc3cc(OCCC4CCN(C(=O)C(C)C)CC4)ccc3c2n1CC(C)C
69 | 187 °C | CCCCOC(=O)c1ccccc1C(=O)Nc1nc2ccccc2[nH]1
70 | 174 °C | N#CC1=C(c2cccs2)Nc2n[nH]cc2C1c1ccccc1Cl (stereo not drawn)
71 | 97 to 102 °C | COc1ccc(Cl)cc1-c1nccn1-c1ccccc1
72 | 169 to 171 °C | CN1CCN(c2cc3ccccc3c(=O)[nH]2)[C@@H](CO)C1

Row | melting point | Structure (SMILES)
73 | 64 to 65 °C | CCOC(=O)c1cnc(Nc2cc(OC)c(OC)c(OC)c2)nc1-c1ccccc1
74 | 79 to 81 °C | CC(C)(C)C(=O)C=Cc1ccc(C2OCCO2)cc1
75 | 167 to 168 °C | N#Cc1nc(N)c(-c2ccccc2)nc1C#N
76 | 183 to 184 °C | COc1cc(C(C)C)c2c(c1)S(=O)(=O)N(COC(=O)c1c(C)c3cc(Cl)ccc3n1C)C2=O
77 | 127 to 130 °C | CC(CCCc1ccccc1)c1cc(O)c2c(c1)N1C(=O)CCC1CC2=O (stereo not drawn)
78 | 218 to 220 °C | O=C(O)Cn1c(-c2cc(Cl)ccn2)nc2cccnc21
79 | 104 to 105 °C | COC(=O)c1cc(OC(F)F)cnc1C1=NC(C)(C(C)C)C(=O)N1 (stereo not drawn)
80 | 57.6 °C | CCCCC1(CC)CS(=O)(=O)c2ccccc2N(c2ccccc2)C1=O (stereo not drawn)
81 | 75 to 77 °C | CCCCN1C(=O)c2cccc3c(SC)ccc1c23
82 | 150 °C | CN(C)c1ccccc1CC(=O)N1C[C@@H]2C(=O)CCC(c3ccccc3)(c3ccccc3)[C@@H]2C1
83 | 119 to 120 °C | CCOC(=O)Cc1csc(NC(=O)C(Cc2ccccc2)NC(=O)OC(C)(C)C)n1 (stereo not drawn)
84 | 102 to 103 °C | C#CCOc1cc(-c2ncc(C(F)(F)F)cc2Cl)ccc1Cl
85 | 135 to 138 °C | CC(=O)Nc1ccc(S(F)(F)(F)(F)F)cc1[N+](=O)[O-]
86 | 113 to 155 °C | COC(=O)C1(C(=O)OC)Cc2cc(Br)ccc2N1
87 | 299 to 301 °C | CNc1cc(NS(=O)(=O)c2ccc(N)cc2)nc(N2CCCC2)n1
88 | 244 to 246 °C | O=C(O)COc1cccc(CCc2nc(-c3ccccc3)c(-c3ccccc3)[nH]2)c1
89 | 119 to 121 °C | CCN1OCC(=O)N(c2cc(Cl)ccc2C)C1=S
90 | 160 to 161 °C | O=C(O)CCSC(SCCC(=O)O)c1cccc(CCc2ccc3ccc(Cl)cc3n2)c1
91 | 175 °C | N#Cc1cc(NC(=O)c2cc3ccccc3o2)ccc1OC1CCN(Cc2ccccc2)CC1
92 | 172 to 175 °C | CCc1nc2c(N)nc3ccccc3c2n1CCCCS(=O)(=O)c1ncccn1
93 | 106 to 108 °C | C=CCO/N=C(/C(=O)O)c1ccc(OCCOc2ccc3ccccc3c2)s1

Row | Structure (SMILES) | melting point
94 | COc1ccc(C2(CCN3CCC(C(N)=O)(c4ccccc4)CC3)CCN(C(=O)c3cc(OC)c(OC)c(OC)c3)C2)cc1OC (stereo not drawn) | 60 to 62 °C
95 | CCCN1C(=O)N(CCC)C(=O)C2(CC=C3C(CCC4=Cc5c(cnn5-c5ccc(F)cc5)CC43C)O2)C1=O (stereo not drawn) | 81 to 82 °C
96 | Clc1ccc2[nH]nc(N3CCNCC3)c2c1 | 60 to 62 °C
97 | NC(Cc1ccccc1)c1ccc(Cl)cc1 (stereo not drawn) | 35 to 36 °C
98 | CC1(Cc2ccccc2)CCNC1=O (stereo not drawn) | 89 to 90 °C
